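Step 1: Grow cells in 96-well plates. Step 2: Expose to compound for 48 hours at 5 concentrations. Step 3: Interpolate endpoints linearly; if unreached, use highest concentration. The concentration for 50% growth inhibition is given as GI50.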 The source made the active and inactive calls. No stated cut-off is given here; in the data, active = GI50 up to about 1.1 µM and inactive = higher.
Legend:
Assay in all cases: growth of human tumour cells (NCI), 48 h
NCI-H522 = system: NCI-H522
RXF 393 = system: RXF 393
SNB-19 = system: SNB-19
SK-MEL-28 = system: SK-MEL-28
BT-549 = system: BT-549
K562 = system: K562
HCT-15 = system: HCT-15
U-251 = system: U-251
IGROV-1 = system: IGROV-1
COLO 205 = system: COLO 205
SK-MEL-5 = system: SK-MEL-5
UACC-62 = system: UACC-62
OVCAR-4 = system: OVCAR-4
M14 = system: M14
SNB-75 = system: SNB-75
A498 = system: A498
PC-3 = system: PC-3
SF-539 = system: SF-539
UACC-257 = system: UACC-257
NCI-H23 = system: NCI-H23
MOLT-4 = system: MOLT-4
HOP-92 = system: HOP-92
SF-295 = system: SF-295
SR = system: SR
DU-145 = system: DU-145
HT-29 = system: HT-29
CCRF-CEM = system: CCRF-CEM
UO-31 = system: UO-31
HCT-116 = system: HCT-116
NCI/ADR-RES = system: NCI/ADR-RES
TK-10 = system: TK-10
NCI-H460 = system: NCI-H460
SN12C = system: SN12C
SK-MEL-2 = system: SK-MEL-2
KM12 = system: KM12
SK-OV-3 = system: SK-OV-3
NCI-H226 = system: NCI-H226
A549 = system: A549
LOX IMVI = system: LOX IMVI
EKVX = system: EKVX
RPMI-8226 = system: RPMI-8226
SF-268 = system: SF-268
MDA-MB-435 = system: MDA-MB-435
MCF7 = system: MCF7
OVCAR-8 = system: OVCAR-8
CAKI-1 = system: CAKI-1
MDA-MB-231 = system: MDA-MB-231
HL-60 = system: HL-60
MDA-N = system: MDA-N
OVCAR-3 = system: OVCAR-3
ACHN = system: ACHN
T47D = system: T47D
SW-620 = system: SW-620
Malme-3M = system: Malme-3M
OVCAR-5 = system: OVCAR-5
786-0 = system: 786-0
HOP-62 = system: HOP-62
HCC 2998 = system: HCC 2998

Compound: COC1=CC(=O)c2c(c(COC(C)=O)cn2C)C1=O
- GI50 (NCI-H522): 0.0158 µM (active)
- GI50 (RXF 393): 0.0809 µM (active)
- GI50 (SNB-19): 0.345 µM (active)
- GI50 (SK-MEL-28): 0.22 µM (active)
- GI50 (BT-549): 0.0208 µM (active)
- GI50 (K562): 0.15 µM (active)
- GI50 (HCT-15): 0.0197 µM
- GI50 (U-251): 0.129 µM (active)
- GI50 (IGROV-1): 0.184 µM (active)
- GI50 (COLO 205): 0.0282 µM (active)
- GI50 (SK-MEL-5): 0.118 µM (active)
- GI50 (UACC-62): 0.13 µM (active)
- GI50 (OVCAR-4): 0.257 µM (active)
- GI50 (M14): 0.0632 µM (active)
- GI50 (SNB-75): 0.308 µM (active)
- GI50 (A498): 0.244 µM (active)
- GI50 (PC-3): 0.309 µM (active)
- GI50 (SF-539): 0.138 µM (active)
- GI50 (UACC-257): 0.334 µM (active)
- GI50 (NCI-H23): 0.0715 µM (active)
- GI50 (MOLT-4): 0.305 µM (active)
- GI50 (HOP-92): 0.291 µM (active)
- GI50 (SF-295): 0.0286 µM (active)
- GI50 (SR): 0.211 µM (active)
- GI50 (DU-145): 0.0457 µM (active)
- GI50 (HT-29): 0.0261 µM (active)
- GI50 (CCRF-CEM): 0.234 µM (active)
- GI50 (UO-31): 0.159 µM (active)
- GI50 (HCT-116): 0.0347 µM (active)
- GI50 (NCI/ADR-RES): 0.061 µM (active)
- GI50 (TK-10): 0.0408 µM (active)
- GI50 (NCI-H460): 0.115 µM (active)
- GI50 (SN12C): 0.0622 µM (active)
- GI50 (SK-MEL-2): 0.163 µM (active)
- GI50 (KM12): 0.0962 µM (active)
- GI50 (SK-OV-3): 0.119 µM (active)
- GI50 (NCI-H226): 0.137 µM (active)
- GI50 (A549): 0.207 µM (active)
- GI50 (LOX IMVI): 0.0887 µM (active)
- GI50 (EKVX): 0.279 µM (active)
- GI50 (RPMI-8226): 0.211 µM (active)
- GI50 (SF-268): 0.173 µM (active)
- GI50 (MDA-MB-435): 0.13 µM (active)
- GI50 (MCF7): 0.184 µM (active)
- GI50 (OVCAR-8): 0.122 µM (active)
- GI50 (CAKI-1): 0.0405 µM (active)
- GI50 (MDA-MB-231): 0.389 µM (active)
- GI50 (HL-60): 0.299 µM (active)
- GI50 (MDA-N): 0.0942 µM (active)
- GI50 (OVCAR-3): 0.158 µM (active)
- GI50 (ACHN): 0.0306 µM (active)
- GI50 (T47D): 0.736 µM (active)
- GI50 (SW-620): 0.0249 µM (active)
- GI50 (Malme-3M): 0.0343 µM (active)
- GI50 (OVCAR-5): 0.0223 µM (active)

Compound: O=c1sc2c(s1)SSSSS2
- GI50 (NCI-H522): 34.2 µM (inactive)
- GI50 (RXF 393): > 50 µM (inactive)
- GI50 (SNB-19): > 50 µM (inactive)
- GI50 (SK-MEL-28): > 50 µM (inactive)
- GI50 (BT-549): > 50 µM (inactive)
- GI50 (786-0): > 50 µM (inactive)
- GI50 (K562): 31.8 µM (inactive)
- GI50 (HCT-15): > 50 µM
- GI50 (U-251): > 50 µM (inactive)
- GI50 (IGROV-1): > 50 µM (inactive)
- GI50 (COLO 205): > 50 µM (inactive)
- GI50 (SK-MEL-5): > 50 µM (inactive)
- GI50 (UACC-62): 35.2 µM (inactive)
- GI50 (OVCAR-4): > 50 µM (inactive)
- GI50 (M14): > 50 µM (inactive)
- GI50 (A498): > 50 µM (inactive)
- GI50 (PC-3): > 50 µM (inactive)
- GI50 (SF-539): 20.2 µM (inactive)
- GI50 (UACC-257): 28.6 µM (inactive)
- GI50 (NCI-H23): > 50 µM (inactive)
- GI50 (MOLT-4): 11.8 µM (inactive)
- GI50 (HOP-92): > 50 µM (inactive)
- GI50 (SF-295): > 50 µM (inactive)
- GI50 (SR): > 50 µM (inactive)
- GI50 (DU-145): > 50 µM (inactive)
- GI50 (HT-29): 21.1 µM (inactive)
- GI50 (CCRF-CEM): 9.18 µM (inactive)
- GI50 (UO-31): > 50 µM (inactive)
- GI50 (HCT-116): > 50 µM (inactive)
- GI50 (NCI/ADR-RES): > 50 µM (inactive)
- GI50 (TK-10): > 50 µM (inactive)
- GI50 (NCI-H460): 21.4 µM (inactive)
- GI50 (HOP-62): > 50 µM (inactive)
- GI50 (SN12C): > 50 µM (inactive)
- GI50 (SK-MEL-2): > 50 µM (inactive)
- GI50 (KM12): > 50 µM (inactive)
- GI50 (SK-OV-3): > 50 µM (inactive)
- GI50 (NCI-H226): > 50 µM (inactive)
- GI50 (A549): > 50 µM (inactive)
- GI50 (HCC 2998): > 50 µM (inactive)
- GI50 (LOX IMVI): 30.5 µM (inactive)
- GI50 (EKVX): > 50 µM (inactive)
- GI50 (RPMI-8226): > 50 µM (inactive)
- GI50 (SF-268): 28.6 µM (inactive)
- GI50 (MDA-MB-435): > 50 µM (inactive)
- GI50 (MCF7): 31.1 µM (inactive)
- GI50 (OVCAR-8): > 50 µM (inactive)
- GI50 (CAKI-1): > 50 µM (inactive)
- GI50 (MDA-MB-231): > 50 µM (inactive)
- GI50 (MDA-N): > 50 µM (inactive)
- GI50 (OVCAR-3): 41.9 µM (inactive)
- GI50 (ACHN): > 50 µM (inactive)
- GI50 (T47D): > 50 µM (inactive)
- GI50 (SW-620): > 50 µM (inactive)
- GI50 (Malme-3M): > 50 µM (inactive)
- GI50 (OVCAR-5): > 50 µM (inactive)

Compound: Cc1cc2c(s1)C(N)CC2=O (configuration not stated)
- GI50 (RXF 393): > 100 µM (inactive)
- GI50 (SNB-19): > 100 µM (inactive)
- GI50 (SK-MEL-28): > 100 µM (inactive)
- GI50 (BT-549): > 100 µM (inactive)
- GI50 (786-0): > 100 µM (inactive)
- GI50 (K562): > 100 µM (inactive)
- GI50 (HCT-15): > 100 µM
- GI50 (U-251): > 100 µM (inactive)
- GI50 (IGROV-1): > 100 µM (inactive)
- GI50 (COLO 205): > 100 µM (inactive)
- GI50 (SK-MEL-5): > 100 µM (inactive)
- GI50 (UACC-62): > 100 µM (inactive)
- GI50 (M14): > 100 µM (inactive)
- GI50 (SNB-75): > 100 µM (inactive)
- GI50 (A498): > 100 µM (inactive)
- GI50 (PC-3): > 100 µM (inactive)
- GI50 (SF-539): > 100 µM (inactive)
- GI50 (UACC-257): > 100 µM (inactive)
- GI50 (MOLT-4): > 100 µM (inactive)
- GI50 (SR): > 100 µM (inactive)
- GI50 (DU-145): > 100 µM (inactive)
- GI50 (HT-29): > 100 µM (inactive)
- GI50 (CCRF-CEM): > 100 µM (inactive)
- GI50 (UO-31): > 100 µM (inactive)
- GI50 (HCT-116): > 100 µM (inactive)
- GI50 (NCI/ADR-RES): > 100 µM (inactive)
- GI50 (TK-10): > 100 µM (inactive)
- GI50 (NCI-H460): > 100 µM (inactive)
- GI50 (HOP-62): > 100 µM (inactive)
- GI50 (SN12C): > 100 µM (inactive)
- GI50 (SK-MEL-2): > 100 µM (inactive)
- GI50 (KM12): > 100 µM (inactive)
- GI50 (SK-OV-3): > 100 µM (inactive)
- GI50 (A549): > 100 µM (inactive)
- GI50 (HCC 2998): > 100 µM (inactive)
- GI50 (EKVX): > 100 µM (inactive)
- GI50 (RPMI-8226): > 100 µM (inactive)
- GI50 (SF-268): > 100 µM (inactive)
- GI50 (MDA-MB-435): > 100 µM (inactive)
- GI50 (MCF7): > 100 µM (inactive)
- GI50 (OVCAR-8): > 100 µM (inactive)
- GI50 (CAKI-1): > 100 µM (inactive)
- GI50 (MDA-MB-231): > 100 µM (inactive)
- GI50 (HL-60): > 100 µM (inactive)
- GI50 (MDA-N): > 100 µM (inactive)
- GI50 (OVCAR-3): > 100 µM (inactive)
- GI50 (ACHN): > 100 µM (inactive)
- GI50 (T47D): > 100 µM (inactive)
- GI50 (SW-620): > 100 µM (inactive)
- GI50 (Malme-3M): > 100 µM (inactive)
- GI50 (OVCAR-5): > 100 µM (inactive)
